Bridge positions count the residues as written; N and C are the ends. Square brackets hold non-standard residues; d marks the D form. Ends that are not written are not given here. cellulose = not defined here; βAla = NCCC(=O)O
Columns and labels:
Format in all cases: binding
Set-up in all cases: key: No binding of immunoglobulin for the defined peptide variant, detection negative: 0; Binding of immunoglobulin for the defined peptide variant, detection positive: +
[1] = system: immunoglobulins in human plasma; test: Cellulose-immobilized 13-mer peptide variants incubated with human plasma, anti-human IgG-AP detection; details: human plasma as sample, diluted 1:10,000 in blocking buffer, 3 h room temperature
How it was run: (§1)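 SPOT-type 13-mer peptides on cellulose with a (βA)(βA) spacer, blocked in 5% saccharose/4% BSA in T-TBS pH 8.0. Incubated 3 h at RT with human IgG-Fc (1 μg/ml) or human serum/plasma (1:10,000), or with blocking buffer alone as the albumin specificity control. Bound IgG detected with AP-anti-human IgG (1.2 μg/ml) and NBT/BCIP colorimetric development at pH 9.5.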

[2] = system: serum albumin; test: Cellulose-immobilized 13-mer peptide variants incubated with serum albumin (negative control), anti-human IgG-AP detection; details: blocking buffer without addition, 3 h room temperature
How it was run: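 Read-out was colorimetric NBT/BCIP staining (developing buffer pH 9.5) after alkaline phosphatase-conjugated anti-human IgG at 1.2 μg/ml. Before this, the immobilized peptides had been incubated 3 h at room temperature with 1 μg/ml IgG-Fc, 1:10,000 diluted serum, or albumin-containing blocking buffer without addition.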

[3] = system: human IgG-Fc; test: Cellulose-immobilized 13-mer peptide variants incubated with human IgG-Fc, anti-human IgG-AP detection; details: IgG-Fc 1 μg/ml in blocking buffer, 3 h room temperature
How it was run: as §1

| Substance | Result for incubation with human plasma (immunoglobulin binding detection) [1] | Result for incubation with serum albumin (immunoglobulin binding detection) [2] | Result for incubation with human IgG-Fc (immunoglobulin binding detection) [3] |
| --- | --- | --- | --- |
| 04V: cellulose-bound 13-mer variant DCAVHLGELVWCT-(βA)(βA) (disulfide 2-12 (inferred); not fully specified (N-terminus, C-terminus); printed as DCAVHLGELVWCT-(βA)(βA); also: cellulose-bound) | + | 0 | + |
| 05C: cellulose-bound 13-mer variant DCAWCLGELVWCT-(βA)(βA) (not fully specified (N-terminus, C-terminus, bridges); printed as DCAWCLGELVWCT-(βA)(βA); cysteine pairing not given here; also: cellulose-bound) | 0 | 0 | 0 |
| 10Y: cellulose-bound 13-mer variant DCAWHLGELYWCT-(βA)(βA) (DCAWHLGELYWCT-{βAla-βAla-cellulose}; disulfide 2-12 (inferred); reading uncertain; also: printed as DCAWHLGELYWCT-(βA)(βA)) | 0 | 0 | 0 |
| 02Q: cellulose-bound 13-mer variant DQAWHLGELVWCT-(βA)(βA) (DQAWHLGELVWCT[βAla][βAla]; not fully specified; printed as DQAWHLGELVWCT-(βA)(βA); also: cellulose-bound) | 0 | 0 | 0 |
| 03D: cellulose-bound 13-mer variant DCDWHLGELVWCT-(βA)(βA) (DCDWHLGELVWCT-{βAla-βAla-cellulose}; disulfide 2-12 (inferred); reading uncertain; also: printed as DCDWHLGELVWCT-(βA)(βA)) | 0 | 0 | 0 |
| 03F: cellulose-bound 13-mer variant DCFWHLGELVWCT-(βA)(βA) (DCFWHLGELVWCT-{βAla-βAla-cellulose}; disulfide 2-12 (inferred); reading uncertain; also: printed as DCFWHLGELVWCT-(βA)(βA)) | 0 | 0 | 0 |
| 11M: cellulose-bound 13-mer variant DCAWHLGELVMCT-(βA)(βA) | 0 | 0 | 0 |
| 10T: cellulose-bound 13-mer variant DCAWHLGELTWCT-(βA)(βA) (DCAWHLGELTWCT-{βAla-βAla-cellulose}; disulfide 2-12 (inferred); reading uncertain; also: printed as DCAWHLGELTWCT-(βA)(βA)) | 0 | 0 | 0 |
| 08N: cellulose-bound 13-mer variant DCAWHLGNLVWCT-(βA)(βA) (DCAWHLGNLVWCT-{βAla-βAla-cellulose}; disulfide 2-12 (inferred); not fully specified (N-terminus); printed as DCAWHLGNLVWCT-(βA)(βA); reading uncertain) | + | 0 | + |
| 09M: cellulose-bound 13-mer variant DCAWHLGEMVWCT-(βA)(βA) (DCAWHLGEMVWCT-{βAla-βAla-cellulose}; disulfide 2-12 (inferred); reading uncertain; also: printed as DCAWHLGEMVWCT-(βA)(βA)) | 0 | 0 | + |
| 02R: cellulose-bound 13-mer variant DRAWHLGELVWCT-(βA)(βA) (DRAWHLGELVWCT[βAla][βAla]; not fully specified; printed as DRAWHLGELVWCT-(βA)(βA); also: cellulose-bound) | 0 | 0 | 0 |
| 10C: cellulose-bound 13-mer variant DCAWHLGELCWCT-(βA)(βA) (DCAWHLGELCWCT-{βAla-βAla-cellulose}; not fully specified (bridges); printed as DCAWHLGELCWCT-(βA)(βA); cysteine pairing not given here; reading uncertain) | 0 | 0 | 0 |

Now from value to substance:

| Result for incubation with human plasma (immunoglobulin binding detection) [1] | Result for incubation with serum albumin (immunoglobulin binding detection) [2] | Result for incubation with human IgG-Fc (immunoglobulin binding detection) [3] | Substance |
| --- | --- | --- | --- |
| 0 | 0 | 0 | 08I: cellulose-bound 13-mer variant DCAWHLGILVWCT-(βA)(βA) (DCAWHLGILVWCT-{βAla-βAla-cellulose}; disulfide 2-12 (inferred); not fully specified (N-terminus); printed as DCAWHLGILVWCT-(βA)(βA); reading uncertain) |
| 0 | 0 | 0 | 02A: cellulose-bound 13-mer variant DAAWHLGELVWCT-(βA)(βA) (DAAWHLGELVWCT[βAla][βAla]; not fully specified; printed as DAAWHLGELVWCT-(βA)(βA); also: cellulose-bound) |
| 0 | 0 | + | 09Q: cellulose-bound 13-mer variant DCAWHLGEQVWCT-(βA)(βA) (DCAWHLGEQVWCT-{βAla-βAla-cellulose}; disulfide 2-12 (inferred); reading uncertain; also: printed as DCAWHLGEQVWCT-(βA)(βA)) |
| 0 | 0 | 0 | 02M: cellulose-bound 13-mer variant DMAWHLGELVWCT-(βA)(βA) (DMAWHLGELVWCT[βAla][βAla]; not fully specified; printed as DMAWHLGELVWCT-(βA)(βA); also: cellulose-bound) |
| + | 0 | + | 06K: cellulose-bound 13-mer variant DCAWHKGELVWCT-(βA)(βA) (DCAWHKGELVWCT-{βAla-βAla-cellulose}; disulfide 2-12 (inferred); not fully specified (N-terminus); printed as DCAWHKGELVWCT-(βA)(βA); reading uncertain) |
